# According to patent US20140057901A1, “XANTHINE DERIVATIVES, THE PREPARATION THEREOF AND THEIR USE AS PHARMACEUTICAL COMPOSITIONS” (Boehringer Ingelheim Pharma GmbH & Co. KG, priority 2001, published 2014):
smiles,measurement,value
"CC(C)=CCn1c(N2CCC(CN)CC2)nc2c1c(=O)n(C)c(=O)n2C [Example 2(105), 1,3-dimethyl-7-(3-methyl-2-buten-1-yl)-8-(4-aminomethyl-piperidin-1-yl)-xanthine]",melting point,110 to 112 °C
